# pIC50: −log10 of the molar value. Read-outs that look alike come from different tables or passages of the source.
# Columns and labels:
# [1] = molecular target: CDK2 (p33^cdk2, cyclin E) (Homo sapiens, UniProt P24941); test: CDK inhibition assay, p33^cdk2 kinase, histone H1 phosphorylation;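 note: Baculovirus-expressed kinase/cyclin complex from Sf9 cell extract, 10 min at 30 °C, phosphoproteins separated by SDS gel and quantified by image analysis, activity relative to DMSO control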
# Procedure: Cyclin-dependent kinases (p34^cdc2, p33^cdk2) and cyclins (cyclin B, E) are produced in Sf9 insect cells coinfected with appropriate baculoviral constructs. The cells are harvested 68-72 hrs post infection in lysis buffer for 30 min on ice and the soluble fraction is recovered by centrifugation at 14.000 g for 10 min. The protein extract is stored at −80° C.
# Lysis buffer: 50mM Tris pH 7.4, 150mM NaCl, 5 mM EDTA, 20 mM NaF, 1% Tween, 1 mM DTT, 0.1 mM PMSF, leupeptine, aprotonine.
# To carry out experiments on kinetics under linear conditions, the final point test system for kinase activity measurement is used. The kinase is added to reaction mixture in such a way as to obtain linear activity with respect to the concentration of enzyme and with respect to time.
# Kinase activity is determined at 30° C. in the kinase buffer.
# Tested compounds are usually dissolved to 100 mM solutions in DMSO, final concentration of DMSO in reaction mixture never exceeds 1%. The controls contain suitable dilutions of DMSO.
# After 10 min, addition 3×SDS sample buffer stops the incubations. Phosphorylated proteins are separated electrophoretically using 10% SDS polyacrylamide gel. The measurement of kinase activity is done using digital image analysis.
# The kinase activity is expressed as a percentage of maximum activity, the apparent inhibition constants are determined by graphic analysis.
# Kinase buffer: 50 mM Hepes pH 7.4, 10 mM MgCl2, 5 mM EGTA, 10 mM
# [2] = system: Cytokinin-dependent tobacco callus Nicotiana tabacum L. cv. Wisconsins 38; test: Tobacco callus bioassay for cytotoxicity (herbicidal activity); format: cell-based; conditions: four weeks
# Procedure: The compounds to be tested were dissolved in dimethylsulfoxide (DMSO) and the solution brought up to 10^−3 M with distilled water. […] Cytokinin-dependent tobacco callus Nicotiana tabacum L. cv. […] Subcultivation was carried out every three weeks. Fourteen days before the bioassay, the callus tissue was transferred to the media without 6-benzylaminopurine. Compounds were tested with two different concentrations of 6-benzylaminopurine (10^−5 M and 10^−6 M). Inhibitory growth activity was determined from the increase in fresh callus weight after four weeks of cultivation. Five replicates were prepared for each concentration tested and the entire test was repeated at least twice.
# [3] = molecular target: T1, CDK1 (p34^cdc2, cyclin B) (Homo sapiens, UniProt P06493); test: CDK inhibition assay, p34^cdc2 kinase, histone H1 phosphorylation; format: biochemical; conditions: 15 μM ATP, histone H1, 30° C.
# T1 construct: made in house; host or cells: Sf9 insect cells (baculovirus co-infection)
# Procedure: The controls contain suitable dilutions of DMSO.
# 2-glycerolphosphate, 1 mM NaF, 1 mM DTT
# [4] = system: MCF7 (human breast adenocarcinoma); test: In vitro cytotoxic activity, Calcein AM, three days; format: cell-based
# Procedure: (§1) We have been using the following cell lines: HELA (human cervical carcinoma), MCF7 (human breast adenocarcinoma), NIH 3T3 (mouse fibroblasts), HOS (human osteogenic sarcoma), HL 60 (human promyelocytic leukemia), G 361 (human malignant melanoma), K562 (human chronic myeloblastic leukemia), CEM (human lymphoblastoid leukaemia). Tested drugs were added to the cell cultures in six different concentration and kept at 37° C. and 5% CO2 for three days. All cell lines were grown in DMBM medium (Gibco BRL) supplemented with 10% (v/v) fetal bovine serum and L-glutamine and maintained at 37° C. in a humidified atmosphere with 5% CO2. 10^4 cells were seeded into each well of 96 well plate, allowed to stabilize for at least 2 h and then tested compounds were added at various concentrations ranging from 200 to 0.2 μM in triplicates. Three days after drug addition Calcein AM solution (Molecular Probes) was added and let to enter the cells for 1 hour. Fluorescence of viable cells was quantified employing Fluoroskan Ascent (Microsystems).
# [5] = system: K562 (human chronic myeloblastic leukemia); test: as above; format: cell-based; conditions: read-out: K-562 IC50
# Procedure: as §1
# [6] = Nicotiana tabacum, 672 h, read-out: IC50, growth of tobacco callus, 10^−5 M BAP, 10^−5 M 6-benzylaminopurine
# [7] = Nicotiana tabacum, 672 h, 10^−6 M 6-benzylaminopurine, read-out: IC50, growth of tobacco callus, 10^−6 M BAP
# T1 sequence (P06493 whole entry, species assumed): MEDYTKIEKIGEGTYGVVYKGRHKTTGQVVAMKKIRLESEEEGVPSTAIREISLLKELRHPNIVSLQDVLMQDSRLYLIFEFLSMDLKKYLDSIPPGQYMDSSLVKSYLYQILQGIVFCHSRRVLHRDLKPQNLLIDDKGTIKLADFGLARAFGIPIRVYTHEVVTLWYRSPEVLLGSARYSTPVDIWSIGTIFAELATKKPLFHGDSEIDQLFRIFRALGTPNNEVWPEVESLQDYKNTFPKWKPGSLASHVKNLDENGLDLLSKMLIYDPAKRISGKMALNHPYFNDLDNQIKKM
# T1 sequence (P14635 whole entry partner, species assumed): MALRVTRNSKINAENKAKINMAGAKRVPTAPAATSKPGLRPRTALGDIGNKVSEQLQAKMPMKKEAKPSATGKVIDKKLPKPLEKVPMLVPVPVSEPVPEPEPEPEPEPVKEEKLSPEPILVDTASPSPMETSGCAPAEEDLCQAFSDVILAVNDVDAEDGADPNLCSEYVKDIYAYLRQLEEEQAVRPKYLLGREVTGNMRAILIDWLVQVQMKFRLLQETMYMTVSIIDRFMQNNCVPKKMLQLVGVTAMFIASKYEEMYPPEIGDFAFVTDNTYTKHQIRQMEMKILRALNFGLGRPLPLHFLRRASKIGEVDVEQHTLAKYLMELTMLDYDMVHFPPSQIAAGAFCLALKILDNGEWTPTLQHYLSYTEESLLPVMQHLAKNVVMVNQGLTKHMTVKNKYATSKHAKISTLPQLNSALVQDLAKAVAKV
Structure (SMILES),pIC50 [1],"pIC50 [2, 6]","pIC50 [2, 7]",pIC50 [3],"pIC50 ([4]; Homo sapiens, MCF7, 72 h)","pIC50 ([5]; Homo sapiens, K562, 72 h)","pIC50 ([2]; 10^−6 M 6-benzylaminopurine, read-out: IC50, growth of tobacco callus, 10^−6 M BAP)","pIC50 ([2]; read-out: IC50, growth of tobacco callus, 10^−5 M BAP, 10^−5 M 6-benzylaminopurine)",pIC50 [4],pIC50 [5],"pIC50 ([1]; read-out: CDK2 IC50, 15 μM ATP, histone H1, 30° C.)"
Cc1cccc(CNc2ncnc3c(C(C)C)n[nH]c23)c1 [3-methylbenzylamino / isopropyl],5.51,4.59,5.07,5.66,4.12,4.03,–,–,–,–,–
CC(C)c1n[nH]c2c(NCc3ccccc3Cl)ncnc12 [2-chlorobenzylamino / isopropyl],5.70,4.51,5.34,5.68,4.82,4.68,–,–,–,–,–
CC(C)c1n[nH]c2c(NCc3ccc(Cl)cc3)ncnc12 [4-chlorobenzylamino / isopropyl],5.96,4.92,5.33,5.74,–,–,–,–,–,–,–
CCc1n[nH]c2c(NCc3ccccc3O)ncnc12 [2-hydroxybenzylamino / ethyl],5.15,–,–,5.21,4.20,4.29,–,–,–,–,–
CC(C)c1n[nH]c2c(NC3CCC3)ncnc12 [cyclobutylamino / isopropyl],–,–,–,–,–,–,5.37,4.92,4.35,4.22,–
CC(C)c1n[nH]c2c(Nc3ccc(N)c(Cl)c3)ncnc12 [3-chloro-4-aminoanilino / isopropyl],5.52,–,–,5.54,4.92,4.89,–,–,–,–,–
CC(C)c1n[nH]c2c(NC3CCC(N)CC3)ncnc12 (centres unmarked) [(4-aminocyclohexyl)amino / isopropyl],–,–,–,4.10,–,–,–,–,4.17,3.97,4.15
"CC(C)c1n[nH]c2c(NCc3ccc(O)cc3)ncnc12 [4-hydroxybenzylamino / isopropyl, 7-(4-hydroxybenzyl)amino-3-isopropylpyrazolo[4,3-d]pyrimidine]",6.70,–,–,5.74,3.82,< 3.78,–,–,–,–,–
CC(C)c1n[nH]c2c(NC3CCCC3)ncnc12 [cyclopentylamino / isopropyl],4.70,4.81,5.08,4.74,–,–,–,–,–,–,–
CCc1n[nH]c2c(NCc3cccc(O)c3)ncnc12 [3-hydroxybenzylamino / ethyl],5.49,–,–,5.22,3.95,3.88,–,–,–,–,–
CC(C)c1n[nH]c2c(Nc3cc(N)cc(Cl)c3)ncnc12 [3-chloro-5-aminoanilino / isopropyl],5.24,–,–,5.21,4.54,4.46,–,–,–,–,–
CC(C)c1n[nH]c2c(Nc3ccc(Cl)c(N)c3)ncnc12 [3-amino-4-chloroanilino / isopropyl],5.52,–,–,5.54,6.70,6.52,–,–,–,–,–
CCc1n[nH]c2c(Nc3cccc(Cl)c3)ncnc12 [3-chloroanilino / ethyl],4.74,–,–,4.62,4.72,4.55,–,–,–,–,–
"Cn1cnc2c(NCc3ccccc3)nc(NCCO)nc21 [Olomoucine, reference compound]",–,< 4.30,< 4.30,–,3.88,< 3.78,–,–,–,–,–
Cc1n[nH]c2c(NC3CCC3)ncnc12 [cyclobutylamino / methyl],4.55,–,–,4.46,4.05,4.00,–,–,–,–,–
CCc1n[nH]c2c(NC3CCC3)ncnc12 [cyclobutylamino / ethyl],4.60,–,–,4.57,4.09,4.03,–,–,–,–,–
CC(C)c1n[nH]c2c(Nc3ccc(C(=O)O)c(Cl)c3)ncnc12 [3-chloro-4-carboxyanilino / isopropyl],5.55,–,–,5.60,4.34,4.16,–,–,–,–,–
CC(C)c1n[nH]c2c(Nc3ccc(Cl)cc3)ncnc12 [4-chloroanilino / isopropyl],5.51,–,–,5.68,5.52,5.40,–,–,–,–,–
CC(C)c1n[nH]c2c(Nc3ccc(Br)cc3)ncnc12 [4-bromoanilino / isopropyl],5.72,–,–,5.77,5.30,5.15,–,–,–,–,–

# From patent US20070167466A1, “"Pyrazolo [4,3-d]pyrimidines, processes for their preparation and methods of use"” (priority 2003, published 2007)
